Experimental data from the NIST ThermoML archive (doi:10.1016/j.jct.2017.01.016).

Assay: xn = mol fraction of the nth substance listed
Conditions: 101 kPa, Liquid; for viscosity: Capillary tube (Ostwald / Ubbelohde) method; for speed of sound: Frequency=3 MHz, Linear variable-path acoustic interferometer

Cc1ccccc1C [1,2-dimethylbenzene] + C1COCCO1
Conditions	speed of sound, 293.15 K [m/s]	speed of sound, 298.15 K [m/s]	speed of sound, 303.15 K [m/s]	viscosity, 293.15 K [mPa·s]	viscosity, 298.15 K [mPa·s]	viscosity, 303.15 K [mPa·s]
x2 = 0	1367.7	1347.5	1329.4	0.8066	0.7576	0.7132
x2 = 0.0672	1361.7	1341.5	1323	0.8314	0.7791	0.7321
x2 = 0.1391	1355.5	1335.1	1316.5	0.8598	0.8033	0.7527
x2 = 0.2103	1350	1329.6	1311	0.8896	0.829	0.7747
x2 = 0.2853	1345.3	1324.8	1306	0.9224	0.8576	0.7992
x2 = 0.3543	1341.7	1321	1302	0.9541	0.8851	0.823
x2 = 0.4293	1338.8	1317.9	1298.6	0.9899	0.9162	0.8502
x2 = 0.5092	1336.9	1315.9	1296.3	1.03	0.9509	0.8806
x2 = 0.581	1336.5	1315.4	1295.5	1.067	0.9833	0.909
x2 = 0.6518	1337.4	1316.2	1296	1.104	1.016	0.9382
x2 = 0.7248	1339.8	1318.3	1298	1.144	1.052	0.9693
x2 = 0.7888	1343.5	1321.9	1301.3	1.18	1.083	0.9977
x2 = 0.8595	1349.3	1327.4	1306.5	1.221	1.12	1.03
x2 = 0.9298	1357.1	1334.9	1313.7	1.263	1.157	1.063
